{
  "source": "BindingDB's records for doi:10.1021/jm00095a029",
  "about": "(Warner-Lambert, 1992)",
  "test_system": "Endothelin A receptor",
  "test": "ChEBML_63192",
  "note": "Non-standard residues stand in square brackets, D forms with d. Residues, ends and D or L forms follow the SMILES beside them.",
  "data": [
    {"smiles": "CC[C@H](C)[C@H](NC(=O)[C@H](CC(=O)O)NC(=O)[C@H](CC(C)C)NC(=O)[C@@H](Cc1ccc(O)cc1)NC(C)=O)C(=O)N[C@H](C(=O)N[C@@H](Cc1c[nH]c2ccccc12)C(=O)O)[C@@H](C)CC", "note": "(Ac-[dY]LDIIW-OH)", "values": [
      {"measurement": "IC50", "value": 400, "unit": "nM"}
    ]}
  ]
}
